“And” between values parts separate entries of the source, which are not always exact repeats. Identical values can stand only once.
How the values were obtained:
Type in all cases: in vivo, human
[1] = test system: patients with non-alcoholic fatty liver disease; test: NAFLD patients: BMI, liver parameters (GGT, AST, ALT) and liver ultrasound grade, intravenous vs oral UDCA; design: GGT / AST / ALT: unit not given here; conditions: n = 50; for Liver Ultrasound - G: echographic fatty liver grade 0-3; for BMI / ALT / AST / GGT: mean±SD
Description: Two groups of patients (each group consisting of 50 patients N=50 as disclosed in Table -1) with non-alcoholic fatty liver disease are taken and standardized with the diet of 1300 calories/day (30% proteins, 30% carbohydrates and 40% fat). The first group of patients was treated with 50 mg/kg/day UDCA orally for first two months (500 mg capsules swallowed after meals on average of 2-3 capsules after breakfast, 3-4 capsules after lunch and 3-4 capsules after dinner). The second group of patients was treated with intravenous schedule of UDCA at a dose of 3500 mg each other day (every 48 hours) for a total of 24 intravenous sessions. The lab examinations were performed at time T0 (beginning of the study) and time T1 (end of second month treatment). Each patient of the two groups was submitted to standard echo graphic classification as follows: • Grade 0: No fatty liver • Grade 1 (Mild): Mild diffuse increase in the echogenicity of liver parenchyma or increased hepatorenal contrast with normal diaphragm and intrahepatic vessel borders. • Grade 2 (Moderate): Moderate diffuse increase in the echogenicity of liver parenchyma and increased hepatorenal contrast with slight impairment of diaphragm and intrahepatic vessel borders. • Grade 3 (Severe): In addition to moderate steatosis there was no visualization of posterior portion of the right lobe of liver, intrahepatic vessel borders and diaphragm. Values were presented as mean± standard deviation for quantitative variable and percentages for categorical variables. The two groups were compared by student’s t-test for quantitative variable and chi-square for the categorical variables. Changes from baseline to 12 weeks were compared by paired t-test within each group. Wilcoxon test was used for rating variable comparison before and after treatment in each group.

[2] = test system: patients with non-alcoholic fatty liver disease; test: NAFLD patients: liver biopsy histology, histology activity index (HAI) score; design: scale not given here; conditions: individual patients 1-4
From the text: A. Histology Examination: Only four patients in each group has accepted to undergo the liver biopsy (LB) before and after the treatment with intravenous UDCA and oral UDCA.

[3] = test system: patients with non-alcoholic fatty liver disease; test: NAFLD patients: liver elastography (stiffness, kPa)
From the text: B. Elastography in Liver: Ultrasound imaging plays a major role in the diagnosis, monitoring and therapeutic decisions of chronic liver diseases. It has many clinical indications: morphological examination of the liver parenchyma and assessment of the risk of chronic liver disease by investigating for signs of dysmorphism and/or portal hypertension; detecting and characterizing liver lesions; monitoring local treatments and assessment of treatment response. Different levels of fibrosis are assessed using a histological score. The most widely used is the METAVIR score, which incorporates five stages of fibrosis: • F0 (no fibrosis), • F1 (portal fibrosis without septa: minimal fibrosis), • F2 (portal fibrosis with a few septa: moderate fibrosis or clinically significant fibrosis), • F3 (septal fibrosis with many septa but no cirrhosis: severe fibrosis) and F4 (cirrhosis). Staging liver fibrosis in patients with chronic liver disease is essential for patient management as it allows: • 1) To identify the severity of the liver damage in order to decide whether or not to start treatment (chronic viral liver disease) to avoid progression to cirrhosis when the fibrosis becomes significant ( ≥F2); • 2) To assess the progression or regression of liver fibrosis during treatment; • 3) To institute specific monitoring to screen for and treat complications (HCC, Esophageal varices) in patients suffering from cirrhosis and even severe fibrosis ( ≥F3). Conventional ultrasound cannot differentiate accurately the different liver fibrosis stages. Existing tools to assess liver fibrosis include liver biopsy (LB), which is invasive, and other non-invasive methods. The main non-invasive method to assess liver fibrosis is based on a physical parameter that measures the tissue elasticity and is called Elastography. It can replace subjective palpation and is intended to image the mechanical properties of tissues and more particularly their stiffness. The Elastography methods are based on a common approach: measurement of deformation induced in a tissue by a force. This technique uses an external mechanical device or an internal acoustic radiation force (ARFI and SWE) to induce shear waves in the tissue to be explored. The diagnostic action mechanism is based on shear wave, which is generated by an external mechanical impulse and whose speed is measured by an ultrasound one-dimensional probe. The one-dimensional probe (3.5 MHz) is mounted along the axis of an electro-dynamic transducer (vibrator). In this way it is possible to define the liver stiffness by measuring the velocity of elastic shear waves in the liver parenchyma generated by the mechanical impulse. The propagation velocity is directly related to the stiffness of the medium, defined by the Young modulus. […] The elasticity is expressed in kPa (kilopascals) and is measured at depth ranging from 25 to 65 mm in a 1 x4 cm area: the assessed liver volume is therefore two hundred times greater than the volume examined in a liver biopsy (LB). The obtained values range from 2.5 kPa to 75 kPa. Mean liver elasticity in “normal” subject is 5.81±1.54 and 5.23±1.59 kPa respectively for men and women.

[4] = test system: patients with non-alcoholic fatty liver disease; test: NAFLD patients: gastrointestinal side effects, oral vs intravenous UDCA
Description: The first group of patients was treated with 50 mg/kg/day UDCA orally for first two months (500 mg capsules swallowed after meals on average of 2-3 capsules after breakfast, 3-4 capsules after lunch and 3-4 capsules after dinner). The second group of patients was treated with intravenous schedule of UDCA at a dose of 3500 mg each other day (every 48 hours) for a total of 24 intravenous sessions. The lab examinations were performed at time T0 (beginning of the study) and time T1 (end of second month treatment). Each patient of the two groups was submitted to standard echo graphic classification as follows: • Grade 0: No fatty liver • Grade 1 (Mild): Mild diffuse increase in the echogenicity of liver parenchyma or increased hepatorenal contrast with normal diaphragm and intrahepatic vessel borders. • Grade 2 (Moderate): Moderate diffuse increase in the echogenicity of liver parenchyma and increased hepatorenal contrast with slight impairment of diaphragm and intrahepatic vessel borders. • Grade 3 (Severe): In addition to moderate steatosis there was no visualization of posterior portion of the right lobe of liver, intrahepatic vessel borders and diaphragm.

[5] = test system: patients with biliary colicky pain due to radiolucent gallstones; test: Dissolution of gallbladder transparent stones and colicky pain, intravenous vs oral UDCA; conditions: for patients with gall stones dissolution by echographic evaluation: n = 10
Description: 20 patients were recruited aged 35 years to 65 years with sudden burst of biliary colicky pain due to radiolucent gallstones, diameter 0.3 to […] and altered liver enzymes. Some patients are also […] complaining of quite an intense pain with nausea and vomiting but without fever, negative inflammation markers (ESR, CRP) and slight leukocytosis, no rebound tenderness at the gallbladder manual exploration. […] were administered with 3500 mg of UDCA every 12 hours for 6 days from the cubital vein; the very first infusion at the admission was added with 20 mg hyoscine-N-butyl bromide and 75 mg diclofenac as the patients are distressed by excruciating pain.

[6] = intravenous, 3500 mg every 48 hours, 24 sessions, T0
[7] = intravenous, 3500 mg every 48 hours, 24 sessions, T1 (end of second month)
[8] = oral, 50 mg/kg/day for two months, T0
[9] = oral, 50 mg/kg/day for two months, T1 (end of second month)
[10] = oral, 50 mg/kg/day for two months
[11] = oral group, 0.7 g/kg oral UDCA for three months

## C[C@H](CCC(=O)O)[C@H]1CC[C@H]2[C@@H]3[C@@H](O)C[C@@H]4C[C@H](O)CC[C@]4(C)[C@H]3CC[C@]12C [UDCA, ursodeoxycholic acid]
[1]; [6]
  Liver Ultrasound - G: 3±2
  ALT: 78.05±5.52
  AST: 65.54±4.56
  GGT: 19.52±5.82
[1]; [7]
  Liver Ultrasound - G: 1±0
  ALT: 52.6±5.65
  AST: 44.56±5.52
  BMI: 26.25±6.2 kg/m^2
  GGT: 16.77±7.76
[1]; [8]
  Liver Ultrasound - G: 3±2
  ALT: 76.48±4.95
  AST: 63.25±5.43
  GGT: 22.7±6.43
[1]; [9]
  Liver Ultrasound - G: 2±1
  ALT: 74.32±5.58
  AST: 59.43±3.39
  BMI: 27.67±4.2 kg/m^2
  GGT: 20.83±7.56
[1]; intravenous, 3500 mg every 48 hours, 24 sessions, T0 (beginning of the study)
  BMI: 29.06±4.6 kg/m^2
[1]; oral, 50 mg/kg/day for two months, T0 (beginning of the study)
  BMI: 28.18±3.8 kg/m^2
[2]; intravenous administration, T0
  HAI score: Fibrosis: 3 (2×) and 4 (2×)
  HAI score: Intralobular: 0
  HAI score: Periportal +/- bridging: 3 and 2 and 1 (2×)
  HAI score: Portal inflammation: 3 (2×) and 2 (2×)
[2]; intravenous administration, T1
  HAI score: Fibrosis: 2 and 1 (3×)
  HAI score: Intralobular: 0
  HAI score: Periportal +/- bridging: 1 and 0 (3×)
  HAI score: Portal inflammation: 1 and 0 (2×) and 2
[2]; oral administration, T0
  HAI score: Fibrosis: 4 (3×) and 3
  HAI score: Intralobular: 0
  HAI score: Periportal +/- bridging: 1 (2×) and 3 and 2
  HAI score: Portal inflammation: 3 (2×) and 2 (2×)
[2]; oral administration, T1
  HAI score: Fibrosis: 3 (2×) and 2 (2×)
  HAI score: Intralobular: 0
  HAI score: Periportal +/- bridging: 1
  HAI score: Portal inflammation: 2 (3×) and 1
[3]; METAVIR score F ≥3, intravenous administration, T0
  liver stiffness by elastography (mean ± SD): 20.2±5.7 kPa
[3]; METAVIR score F ≥3, intravenous administration, T1
  liver stiffness by elastography (mean ± SD): 9.9±5.6 kPa
[3]; METAVIR score F ≥3, oral administration, T0
  liver stiffness by elastography (mean ± SD): 19.9±7.1 kPa
[3]; METAVIR score F ≥3, oral administration, T1
  liver stiffness by elastography (mean ± SD): 12.5±6.9 kPa
[3]; METAVIR score F ≥4, intravenous administration, T0
  liver stiffness by elastography (mean ± SD): 25.3±6.5 kPa
[3]; METAVIR score F ≥4, intravenous administration, T1
  liver stiffness by elastography (mean ± SD): 18.5±5.9 kPa
[3]; METAVIR score F ≥4, oral administration, T0
  liver stiffness by elastography (mean ± SD): 23.6±6.8 kPa
[3]; METAVIR score F ≥4, oral administration, T1
  liver stiffness by elastography (mean ± SD): 19.7±5.8 kPa
[4]; intravenous, 3500 mg every 48 hours, 24 sessions
  local or systemic side effects during and after administration: No local or systemic side effects were noted
[4]; intravenous, compared with the capsules to be swallowed
  tolerability and compliance: tolerated and preferred in terms of compliance
[4]; [10]
  bloating, share of the patients: 20%
  colicky pain as side effect: moderate colicky pain
  diarrhoea, share of the patients: 38%
  nausea, share of the patients: 15%
  reduced appetite, share of the patients: 10%
[5]; intravenous 3500 mg every 12 hours for 6 days, 20 patients, first week
  adverse effects of parenteral treatment: no adverse effects
[5]; intravenous group, 3500 mg twice a week for 3 months
  patients with gall stones dissolution by echographic evaluation: 7 patients
[5]; oral UDCA group, the remaining patients
  average stones volume reduction: less than 30%
[5]; [11]
  patients in whom colicky pain reappeared during the first 40 days: 4 patients out of 10
  patients with gall stones dissolution by echographic evaluation: 3 patients
[5]; parenteral group, the remaining 3 patients
  reduction of the sludging concretions and overall stones volume compared with pre-treatment imaging: more than 50%
